In publication PMC10391610, “Survivin prevents the polycomb repressor complex 2 from methylating histone 3 lysine 27” (iScience, 2023):

Tests used:
survivin [1] = target: T1, survivin (Homo sapiens, UniProt O15392); assay: PEPperCHIP peptide microarray, survivin interaction; format: binding; settings: 1 μg/mL survivin
T1 construct: transferred to the survivin1-142 construct used in the present study; His8 tag (pHIS8 vector, thrombin-cleavable); made in house; host or cells: E. coli BL21(DE3) star
Excerpt: We were looking for potential direct interactions between survivin and short peptide sequences originating from PRC2 subunits and other proteins involved in histone modifications based on the in vivo results. Therefore, we created a peptide microarray of overlapping peptides obtained from EZH2, EED, SUZ12, and JARID2 to investigate how survivin interacts with the activity of the PRC2 complex. These subunits form the core of PRC2, and the interaction of survivin with the PRC2 molecular scaffold indicates a potentially disruptive role for survivin in PRC2 function. The fluorescence signal generated by labeled survivin is compared in Figure 2 as a function of position along the polypeptide chain of PRC2 subunits. Figure S1 depicts the raw fluorescence images. Moreover, the microarray fluorescence intensities projected on the three-dimensional structure of the PRC2 core complex are shown in Figure 3. The whole dataset is deposited at the Zenodo data base.
The location of survivin on the peptide microarray was clearly correlated with the amino acid content of the peptide at 1 μg/mL survivin concentration. When evaluating how accurate the predictions were, one should keep in mind that the primary and higher-order structures of the peptide were not at all considered in this analysis. Mislabeling peptides is possible for multiple reasons. The smallest fluorescence signal was chosen as the limit of detection and photon-counting errors may cause weak interactions to be undetected at low fluorescence intensities. Moreover, if the fluorescence intensity of experimental duplicates varied by more than 40%, a peptide was classified as non-interacting even if the lack of reproducibility is ambiguous evidence for the lack of interaction. […] Reducing the number of hidden layer perceptrons from 100 (the default value) to 9 had no effect on the classifier’s performance. Even a 15 amino acid peptide segment composition gives a high degree of uniqueness and highly scalable intensity for survivin-peptide interaction. Survivin has a non-globular structure with no deep binding pockets.
A peptide microarray was designed using the protein sequences from: Cdk1 (P06493), KAT2A/GCN5 (Q92830), SPI1/PU1 (P17947), SUZ12 (Q15022), EED (O75530), JADE3 (Q92613), DIABLO/SMAC (Q9NR28), BOREALIN (Q53HL2), INCENP (Q9NQS7), SGOL1 (Q5FBB7), SGOL2 (Q562F6), EZH2 (Q15910), JARID2 (Q92833), Histone H3 (P68431), AURORAKB (Q96GD4), JADE1 (Q6IE81), JTB (O76095), EVI5 (O60447), RAN (P62826), USP9X (Q93008), C-IAP1 (Q13490), STAT3 (P40763), BRUCE/APOLLON (Q9NR09), XPO1 (O14980), CDX2 (Q99626), Msx2 (P35548), RBM15 (Q96T37), PHF21A (Q96BD5), PHF8 (Q9UPP1), DIDO (Q9BTC0), JADE2 (Q9NQC1) and HASPIN (Q8TF76). The Uniprot ID is shown in parenthesis. The protein sequences were divided into 15 amino acid long peptides with a 10 amino acid overlap. To investigate background interactions with the protein-derived peptides that could interfere with the main assays, one of the PEPperCHIP Peptide Microarrays (PEPperPRINT Gmbh) was pre-staining with the secondary 6x His Tag Antibody DyLight680 antibody at a dilution of 1:1000 and with the monoclonal anti-HA (12CA5)-DyLight800 control antibody at a dilution of 1:1000. Subsequent incubation of other peptide microarray copies with survivin at a concentration of 1 μg/ml in incubation buffer was followed by staining with the secondary 6x His Tag Antibody DyLight680 antibody (Rockland Immunochemicals, Pottstown, PA, USA) and the monoclonal anti-HA (12CA5)-DyLight800 control antibody (Rockland Immunochemicals, Pottstown, PA, USA). The read-out was performed by scanning intensities of 7/7 (red/green). As an internal quality control, HA and His tag control peptides were stained simultaneously to confirm assay quality and to facilitate grid alignment for data quantification. The LI-COR Odyssey Imaging System was used for read-out, and the PepSlide Analyzer was used for quantification of spot intensities and peptide annotation. […]

survivin [2] = target: T1, survivin; assay: Biolayer interferometry (reverse), immobilized survivin, EZH2 peptide as analyte; format: binding; settings: peptide 21.2 µM
Method: Other phases in the reverse experiment follow the same parameters as in non-reverse experiments mentioned above.
Δλ(t) values were converted to dimensionless quantities by dividing the wavelength shifts with 1 nm prior to the analysis. To develop the model, we tentatively assumed Langmuir’s 1:1 model.[85] The kinetic modelling was performed with the pymc3 python package[66] using a Bayesian model: p(KD,app|lower=10^−15,upper=10^−3)=1/upper−lower p(k−1|lower=10^−20,upper=10)=1/upper−lower k1=k−1/KD,app p(A|lower=10^−6,upper=10)=1/upper−lower p(ε|lower=10^−6,upper=1)=1/upper−lower p(Δλ(0)|μ=⟨Δλi⟩,σ=1/10∑(Δλi−⟨Δλi⟩)^2/n)=1/2πσe^−1/2σ(Δλ(t)−μ)^2;Δλ(0)∈[10^−20,+∞]
The association and dissociation phases were modelled simultaneously, and the probability of wavelength shift during association phase was modeled as: p(Δλ(t)|μ=Ac/KD,app+c(1−e^−(k1c+k−1)t),σ=ε)=1/2πσe^−1/2σ(Δλ(t)−μ)^2
The probability of wavelength shift during the dissociation phase was modelled as: p(Δλ(t)|μ=Δλ(0)e^−k−1t,σ=ε)=1/2πσe^−1/2σ(Δλ(t)−μ)^2, where A and k1 are the amplitude and rate constant of the exponential association process, respectively. The concentration of the analyte is c and KD,app is the apparent dissociation constant. The dissociation rate constant is marked with k-1. ε represents the standard deviation of Δλ(t) . […]

T1 sequence (O15392 whole entry): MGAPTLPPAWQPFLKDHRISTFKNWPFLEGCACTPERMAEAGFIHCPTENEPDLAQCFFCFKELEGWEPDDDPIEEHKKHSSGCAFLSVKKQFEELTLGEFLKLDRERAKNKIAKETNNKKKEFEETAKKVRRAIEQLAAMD

**Q.** “VELVNALGQYNDDDDDDDGD DPEEREEKQKDLEDHRDDKE [EZH2_172-211, PRC2-derived peptide, EZH2 residues 172–211, synthesized by Biomatik]” was tested. Which “Average FI (%)” value (survivin [1]; anti-His tag DyLight680 read-out, percentage of maximum fluorescence intensity units (64193) per peptide, 15-mer microarray peptides covering the residues) did it give?
**A.** Its value is 71%.

**Q.** And the “Integrated FI” value (survivin [1]; in units of the maximum FI per peptide, 15-mer microarray peptides covering the residues)?
**A.** The value was 4.28.

**Q.** And the “survivin interaction / fluorescence on microarray (in words)” value (survivin [1]; peptide microarray)?
**A.** Its value is “high survivin-associated fluorescence intensity”.

**Q.** What about the “k1 (association rate constant)” value (survivin [2]; posterior mean ± SD) of the same sequence?
**A.** The value was 45 ± 0.59 M⁻¹ s⁻¹.

**Q.** And the “A (amplitude of association)” value (survivin [2]; posterior mean, SD 1.2×10-3)?
**A.** The value was 0.13 nm.
